Experiments:
[1] = biological target: T1, PfGSK-3 (Plasmodium falciparum, UniProt O77344); test: Kinase assay with recombinant (His)6-tagged PfGSK3, GS-1 peptide and [γ-33P] ATP; assay type: biochemical; settings: for anti-PfGSK-3 IC50 values: result in words; for IC50: unit only in the introducing sentence b99, not in the table, read-out: IC50 PfGSK-3
T1 construct: His6; made in house; host or cells: Escherichia coli TOP 10
T1 sequence (O77344 1-440): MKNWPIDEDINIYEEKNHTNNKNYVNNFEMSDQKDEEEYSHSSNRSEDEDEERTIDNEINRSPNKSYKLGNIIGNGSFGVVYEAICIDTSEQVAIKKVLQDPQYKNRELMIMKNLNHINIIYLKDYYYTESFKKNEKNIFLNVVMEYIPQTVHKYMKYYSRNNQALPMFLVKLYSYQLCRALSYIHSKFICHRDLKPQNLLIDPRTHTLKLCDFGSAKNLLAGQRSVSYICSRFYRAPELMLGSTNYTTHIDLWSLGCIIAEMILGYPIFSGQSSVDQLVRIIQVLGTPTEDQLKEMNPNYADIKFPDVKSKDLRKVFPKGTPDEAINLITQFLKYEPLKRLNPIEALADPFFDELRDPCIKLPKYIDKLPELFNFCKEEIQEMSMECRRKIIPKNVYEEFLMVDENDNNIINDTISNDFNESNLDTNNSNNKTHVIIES
Method: Escherichia coli strain (TOP 10) containing a plasmid encoding PfGSK3 with six histidines (pBAD-Thio-TOPO, Invitrogen) were cultured into 500 ml of LB medium containing 100 µg/ml ampicillin, at 37°C, under shaking (250 rpm) until OD600 of 0.5 was reached. Expression was induced with 0.5 ml of 20% arabinose (0.02% final concentration). The culture was grown at 37°C with shaking for 4 hours. Cells were harvested by centrifugation at 9000 rpm for 10 min. The bacterial pellet was stored frozen at -80°C until further processing. For proteins extraction, pellet was resuspended in 10 ml of lysis buffer (50 mM NaH2PO4 pH 8.0, 300 mM NaCl, 10 mM imidazole) with the addition of protease inhibitors (complete EDTA-free, Roche) and lysozyme ([…] final). Cells were disrupted by sonication and the cell lysate was centrifuged at 24000 rpm for 30 min at 4°C. The recombinant PfGSK3 protein was purified by Immobilized Metal Affinity Chromatography according to a batch procedure on 1 ml of Nickel affinity resin (Ni-NTA agarose beads, Qiagen). Beads were washed four times with 10 ml of wash buffer (50 mM NaH2PO4 pH 8.0, 300 mM NaCl, 30 mM imidazole). Protein was eluted with one volume of elution buffer (50 mM NaH2PO4 pH 8.0, 300 mM NaCl, 250 mM imidazole, 10% glycerol).
(§1) Both porcine GSK3 and PfGSK3 were assayed with 40 µM GS-1 peptide, a specific GSK-3 substrate, ([…]pEDEEE, synthesized by the Peptide Synthesis Unit, Institute of Biomolecular Sciences, University of Southampton, U.K.), in buffer A (25 mM Tris-HCl pH 7.5, 10 mM MgC12, 1 mM EGTA, 1 mM DTT, 50 µg heparin/ml, 0.5 mg BSA/ml) in the presence of 15 µM [γ-^33P] ATP (3000 Ci/mmol; 1 mCi/ml) in a final volume of 30 µl. After 30 min. incubation at 30°C, 25 µl aliquots of supernatant were spotted onto 2.5 x 3 cm pieces of Whatman P81 phosphocellulose paper, and, 20 sec. later, the filters were washed five times (for at least 5 min. each time) in 1 % phosphoric acid. The wet filters were counted in the presence of 1 ml ACS (Amersham) scintillation fluid. The kinase activity was expressed in pmoles phosphate incorporated in GS-1 or in percentage of the maximal activity.

[2] = biological target: Mammalian GSK-3 (GSK-3α/β); test: Kinase assay with native porcine GSK3 purified from porcine brain, GS-1 peptide and [γ-33P] ATP; assay type: biochemical; settings: for anti-mammalian GSK-3 IC50 values: result in words; for IC50: -(10) taken as no inhibition at 10, read-out: IC50 Mammalian GSK-3
Method: Porcine GSK3 (GSK-3α/β) was purified from porcine brain by affinity chromatography on immobilized axin according to the protocol described in Primot et al (Protein Expression and Purification 20, 394-404, 2000).
as §1

SMILES | anti-PfGSK-3 IC50 values [1] | anti-mammalian GSK-3 IC50 values [2] | IC50 [1] [nM] | IC50 [2] [nM]
COc1ccccc1-c1c(C#N)c(N)nc2sc(C(=O)c3cccc(Cl)c3)c(N)c12 [Compound 7, 3,6-diamino-2-(3-chlorobenzoyl)-4-(2-methoxyphenyl)thieno[2,3-b]pyridine-5-carbonitrile] | particularly good | do not demonstrate good | – | –
COc1ccc(C(=O)c2sc3nc(N)c(C#N)c(-c4ccccc4I)c3c2N)cc1 [Compound 11, 3,6-diamino-4-(2-iodophenyl)-2-(4-methoxybenzoyl)thieno[2,3-b]pyridine-5-carbonitrile] | particularly good | do not demonstrate good | 1700 | > 10000
Cc1ccc(C(=O)c2sc3nc(N)c(C#N)c(-c4ccccc4I)c3c2N)cc1 [Compound 12, 3,6-diamino-4-(2-iodophenyl)-2-(4-methylbenzoyl)thieno[2,3-b]pyridine-5-carbonitrile] | particularly good | do not demonstrate good | – | –
N#Cc1c(N)nc2sc(C(=O)c3ccccc3)c(N)c2c1-c1ccccc1Br [Compound 18, 3,6-diamino-2-benzoyl-4-(2-bromophenyl)thieno[2,3-b]pyridine-5-carbonitrile] | particularly good | do not demonstrate good | – | –
N#Cc1c(N)nc2sc(C(=O)c3ccc(Cl)c(Cl)c3)c(N)c2c1-c1ccccc1Br [Compound 21, 3,6-diamino-4-(2-bromophenyl)-2-(3,4-dichlorobenzoyl)thieno[2,3-b]pyridine-5-carbonitrile] | particularly good | do not demonstrate good | 3800 | > 10000
N#Cc1c(N)nc2sc(C(=O)c3ccc(Cl)c(Cl)c3)c(N)c2c1-c1ccccc1Cl [Compound 23, 3,6-diamino-4-(2-chlorophenyl)-2-(3,4-dichlorobenzoyl)thieno[2,3-b]pyridine-5-carbonitrile] | particularly good | do not demonstrate good | – | –
COc1cccc(C(=O)c2sc3nc(N)c(C#N)c(-c4ccccc4Cl)c3c2N)c1 [Compound 24, 3,6-diamino-4-(2-chlorophenyl)-2-(3-methoxybenzoyl)thieno[2,3-b]pyridine-5-carbonitrile] | particularly good | do not demonstrate good | – | –
N#Cc1c(N)nc2sc(C(=O)c3cccc(C(F)(F)F)c3)c(N)c2c1-c1ccccc1Cl [Compound 25, 3,6-diamino-4-(2-chlorophenyl)-2-[3-(trifluoromethyl)benzoyl]thieno[2,3-b]pyridine-5-carbonitrile] | particularly good | do not demonstrate good | – | –
N#Cc1c(N)nc2sc(C(=O)c3cccc(Br)c3)c(N)c2c1-c1ccccc1Cl [Compound 27, 3,6-diamino-2-(3-bromobenzoyl)-4-(2-chlorophenyl)thieno[2,3-b]pyridine-5-carbonitrile] | particularly good | do not demonstrate good | – | –
N#Cc1c(N)nc2sc(C(=O)c3cccc(Cl)c3)c(N)c2c1-c1c(Cl)cccc1Cl [Compound 30, 3,6-diamino-2-(3-chlorobenzoyl)-4-(2,6-dichlorophenyl)thieno[2,3-b]pyridine-5-carbonitrile] | particularly good | do not demonstrate good | – | –
Cc1ccccc1-c1c(C#N)c(N)nc2sc(C#N)c(N)c12 [Compound 40, 3,6-diamino-4-(2-methylphenyl)thieno[2,3-b]pyridine-2,5-dicarbonitrile] | – | – | 510 | 2000
N#Cc1sc2nc(N)c(C#N)c(-c3cccs3)c2c1N [Compound 41, 3,6-diamino-4-(2-thienyl)thieno[2,3-b]pyridine-2,5-dicarbonitrile] | – | – | 180 | 2300
N#Cc1c(N)nc2sc3c(=S)[nH]cnc3c2c1-c1ccccc1Cl [Compound 47, 7-amino-9-(2-chlorophenyl)-4-thioxo-3,4-dihydropyrido[3',2':4,5]thieno[3,2-d]pyrimidine-8-carbonitrile] | – | – | 130 | 60

From EP2308883A1, “New derivatives of thieno[2,3-b]pyridine and 5,6,7,8 tetrahydrothieno[2,3 b]quinoline in particular useful in the treatment of malaria” (priority 2009, dated 2011)
